Measured values reported in patent US20100158897A1, “PAI-1 MODULATORS FOR THE TREATMENT OF OCULAR DISORDERS” (ALCON RESEARCH, LTD., priority 2006, published 2010).

Assays:
[1] = cited from earlier work
[2] = tested on: PAI-1; assay: PAI-1 ELISA: effect on TGFβ2-induced total PAI-1 protein in HTM cell supernatants; type: cell-based, human; details: TGFβ2 5 ng/mL, 24 h
Method: FIGS. 9-11 present graphs showing the effect of cilostazol, 3,4-dehydro cilostazol, and cilostamide on TGFβ2-induced (5 ng/mL; 24 h) total PAI-1 protein in supernatants from human trabecular meshwork (HTM) cell lines. Cilostazol was tested against three different HTM cell lines (GTM, NTM470-05, and GTM191-04).
(§1) Human TM cell culture: Human TM cells were isolated from post-mortem human donor tissue, characterized, and cultured as previously described. Generation and characterization of the transformed (GTM-3) cell line was also as previously described (Pang et al., Preliminary characterization of a transformed cell strain derived from human trabecular meshwork., Curr. Eye Res., Vol. 13:51-63, 1994.)
(§2) PAI-1 ELISA: 24-well plates of TM cell cultures were serum-deprived for 24 h followed by an additional 24 h (or as indicated) incubation with TGFβ2 in a serum-free medium. Aliquots of supernatants from the treated cultures were quantified for secreted PAI-1 content by means of human PAI-1 ELISA kit (American Diagnostica).

[3] = tested on: retinal ganglion cells; details: post-axotomy; cited from earlier work
[4] = tested on: PAI-1; details: non-ocular tissues of rats; cited from earlier work
[5] = tested on: optic nerve head and retina; details: in vivo; cited from earlier work
[6] = tested on: intraocular pressure (IOP); assay: Ad.TGFβ2-induced ocular hypertension in mice, topical ocular administration; type: in vivo; details: conscious mice, rebound tonometer
Method: FIGS. 12a-12b are graphs showing the effect of topical ocular administration of various concentrations of cilostazol compared to control on Ad.TGFβ2-induced ocular hypertension in mice. Ad.TGFβ2 viral vector was injected on Day 0. Dosing with Cilostazol or vehicle was performed on the indicated days (denoted by horizontal bars). Intraocular pressure (IOP) was monitored in conscious mice using a rebound tonometer.

[7] = tested on: PAI-1; assay: PAI-1 ELISA: TGFβ2 effect on PAI-1 levels in GTM-3 cell supernatants; type: cell-based, human; details: GTM-3 cells
Method: PAI-1 mediated effects may contribute to the previously observed TGFβ2-mediated accumulation of extracellular matrix materials in various tissues, including TM tissues. […] TGFβ2-treatment results in both concentration-dependent and time-dependent accumulation of PAI-1 in TM cell supernatants (FIGS. 1 and 2). PAI-1 levels increase gradually in response to TGFβ2, reaching a constant level at approximately 24 h post-treatment.
as §1, §2

[8] = tested on: human TM cells (GTM-3, GTM730); assay: TM cell adhesion to vitronectin substrate (InnoCyte ECM Cell Adhesion Assay); type: cell-based; details: TGFβ2 5 ng/mL, 2 hr, GTM-3 and GTM730 cells
Method: as §1
TM cell adhesion: TM cell adhesion was determined by means of InnoCyte ECM Cell Adhesion Assay (Calbiochem). TM cells (20,000/well; serum-free medium) were plated onto a vitronectin-coated 96-well plate. Test agents were then added, followed by incubation in a cell culture incubator for the times indicated. Non-adherent cells were then removed by decantation and gentle wash of the wells with PBS. Relative cell attachment was determined by means of fluorescent dye (calcein-AM) uptake.

O=c1ccc2cc(OCCCCc3nnnn3C3CCCCC3)ccc2[nH]1 [3,4-dehydro cilostazol, 3,4-dehydro-cilostazol]
share of total activity attributed to cilostazol ([1]; may account for): ≥ 50%
activity relative to cilostazol ([1]; reportedly): 4-7 fold
effect on TGFβ2-induced total PAI-1 protein in supernatants ([2]; GTM-3 HTM cells, FIGS. 10-11): dose-dependent inhibitory effect

CN(C(=O)CCCOc1ccc2[nH]c(=O)ccc2c1)C1CCCCC1 [cilostamide, Cilostamide]
effect on TGFβ2-induced total PAI-1 protein in supernatants ([2]; GTM-3 HTM cells, FIGS. 10-11): dose-dependent inhibitory effect

O=C1CCc2cc(OCCCCc3nnnn3C3CCCCC3)ccc2N1 [cilostazol, Cilostazol]
survival of retinal ganglion cells [3]: increase the survival of retinal ganglion cells
TGFβ2 and PAI-1 protein expression and PAI-1 activity [4]: suppresses
blood flow to the optic nerve head and retina [5]: enhance blood flow
effect on TGFβ2-induced total PAI-1 protein in supernatants ([2]; three HTM cell lines (GTM, NTM470-05, GTM191-04), FIGS. 9a-9c): dose-dependent inhibitory effect
IOP-lowering effect relative to control (Maxidex vehicle) ([6]; 0.3% cilostazol formulation): substantial IOP-lowering effects
IOP-lowering effect relative to control (Maxidex vehicle) ([6]; 1.0% cilostazol formulation): substantial IOP-lowering effects

TGFβ2: cytokine transforming growth factor β2
time to constant PAI-1 level post-treatment ([7]; TGFβ2 5 ng/mL): approximately 24 h
PAI-1 content in trabecular meshwork cell cultures ([7]; concentration- and time-dependent): increases the PAI-1 content
effect on TM cell adhesion compared to controls [8]: did not experience measurable loss of adhesion
